Each structure is given as a SMILES string.

Chain of recombinant human MGAT2 (Q3SYC2 whole entry): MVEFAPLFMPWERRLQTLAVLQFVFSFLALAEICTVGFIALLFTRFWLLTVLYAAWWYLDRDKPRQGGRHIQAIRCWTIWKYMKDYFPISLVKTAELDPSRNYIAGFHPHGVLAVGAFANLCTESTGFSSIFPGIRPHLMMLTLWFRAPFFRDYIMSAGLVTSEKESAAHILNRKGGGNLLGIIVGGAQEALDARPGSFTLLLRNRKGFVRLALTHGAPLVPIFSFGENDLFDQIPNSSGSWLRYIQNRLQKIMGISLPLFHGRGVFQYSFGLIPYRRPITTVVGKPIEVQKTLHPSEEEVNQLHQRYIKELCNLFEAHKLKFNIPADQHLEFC

The test addresses recombinant human MGAT2 (Homo sapiens (Human), UniProt Q3SYC2). Put plainly: Measurement of human MGAT2 inhibitory activity. It is filed as biochemical. The following applies: read-out: IC50 (concentration exhibiting 50% enzyme inhibition), Table 52. The essentials: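 Membrane fraction of Sf9 cells expressing N-terminally Flag-tagged full-length human MGAT2, incubated 1 h at room temperature in 100 mmol/L phosphate pH 7.4 with 2 mmol/L DTT. The substrate solution held 30 μmol/L 2-oleoylglycerol and 10 μmol/L oleoyl-CoA. Diolein product was quantified by RapidFire ESI Q-TOF MS against diolein-d5 internal standard; % inhibition was set relative to with/without-enzyme controls.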
Take `N#CC1(C(=O)NCc2c3c(nn2CCC2CC2)C[C@]2(CCc4cc(OCC(F)(F)F)ccc42)NC3=O)CC1` [Compound I-153]: the IC50 was 240 nM. For `O=C(NCc1c2c(nn1CCC1CC1)C[C@]1(CCc3cc(OCC(F)(F)F)ccc31)NC2=O)c1cocn1` [Compound I-154], the IC50 was 530 nM. Under `CC(C)(O)C(=O)NCc1c2c(nn1CCC1CC1)C[C@]1(CCc3cc(OCC(F)(F)F)ccc31)NC2=O` [Compound I-155] stands 180 nM; under `O=C1N[C@@]2(CCc3cc(OCC(F)(F)F)ccc32)Cc2nn(CCC3CC3)c(CNC(=O)C3(O)CC3)c21` [Compound I-156], 920 nM. Take `O=C1N[C@@]2(CCc3cc(OCC(F)(F)F)ccc32)Cc2nn(CCC3CC3)c(CNC(=O)C3(C(F)(F)F)CC3)c21` [Compound I-157]: the IC50 amounted to 38 nM. Under `O=C1N[C@@]2(CCc3cc(OCC(F)(F)F)ccc32)Cc2nn(CCC3CC3)c(CNC(=O)C3(C(F)(F)F)CCC3)c21` [Compound I-158] stands 130 nM; under `O=C(NCc1c2c(nn1CCC1CC1)C[C@]1(CCc3cc(OCC(F)(F)F)ccc31)NC2=O)c1cnco1` [Compound I-159], 600 nM.

For the compound `CC(C)(C#N)C(=O)NCc1c2c(nn1CCC1CC1)C[C@]1(CCc3cc(OCC(F)(F)F)ccc31)NC2=O` [Compound I-160], the IC50 is 78 nM. Turning to `O=C1N[C@@]2(CCc3cc(OCC(F)(F)F)ccc32)Cc2nn(CCC3CC3)c(CNC(=O)C3CS(=O)(=O)C3)c21` [Compound I-161], the IC50 was 430 nM. For the compound `CS(=O)(=O)CC(=O)Nc1c2c(nn1-c1ccc(C#N)cn1)C[C@]1(CCc3cc(OCC(F)(F)F)cc(F)c31)NC2=O` [Compound I-162], the IC50 was 1.9 nM. Under `CS(=O)(=O)CC(=O)Nc1c2c(nn1-c1ccc(C#N)cn1)C[C@]1(CCc3cc(N4CC(F)(F)C4)ccc31)NC2=O` [Compound I-163] stands 3.6 nM; under `CS(=O)(=O)CC(=O)Nc1c2c(nn1-c1ccc(C#N)cc1)C[C@]1(CCc3cc(F)cc(F)c31)NC2=O` [Compound I-164], 86 nM; under `CS(=O)(=O)CC(=O)Nc1c2c(nn1CCC1CC1)C[C@@]1(CCc3cc(N4CC(F)(F)C4)ccc31)NC2=O` [Compound I-165], 5.2 nM.

For `CS(=O)(=O)CC(=O)Nc1c2c(nn1CCC1CC1)C[C@@]1(CCc3cc(N4CC(C(F)(F)F)C4)ccc31)NC2=O` [Compound I-166], the IC50 was 7.1 nM. The result for `CS(=O)(=O)CC(=O)Nc1c2c(nn1-c1ccc(C#N)cn1)C[C@]1(CCc3cc(N4CC(C(F)(F)F)C4)ccc31)NC2=O` [Compound I-168] reads 5.9 nM. The result for `CS(=O)(=O)CC(=O)Nc1c2c(nn1-c1ccccn1)C[C@@]1(CCc3cc(OCC(F)(F)F)cc(F)c31)NC2=O` [Compound I-169] reads 9.8 nM; that for `CS(=O)(=O)CC(=O)Nc1c2c(nn1CCC1CC1)C[C@](c1ccc(OCC(F)(F)F)cc1F)(C(F)(F)F)NC2=O` [Compound I-171], 12 nM; that for `Cn1cc(C(=O)Nc2c3c(nn2CCC2CC2)C[C@]2(CCc4cc(OCC(F)(F)F)ccc42)NC3=O)nn1` [Compound I-172], 480 nM. The result for `CS(=O)(=O)CC(=O)Nc1c2c(nn1Cc1ccc(C(F)(F)F)o1)C[C@]1(CCc3cc(OCCCC(F)(F)F)ccc31)NC2=O` [Compound I-173] reads 78 nM; that for `COc1ccc(C(=O)Nc2c3c(nn2CCC2CC2)C[C@]2(CCc4cc(OCCCC(F)(F)F)ccc42)NC3=O)cc1` [Compound I-174], 63.7 nM. For the compound `CS(=O)(=O)CC(=O)Nc1c2c(nn1-c1ccccn1)C[C@]1(CCc3cc(F)cc(F)c31)NC2=O` [Compound I-175], the IC50 came to 86 nM. Under `Cc1cc(C(=O)Nc2c3c(nn2CCC2CC2)C[C@]2(CCc4cc(OCC(F)(F)F)ccc42)NC3=O)no1` [Compound I-176] stands 180 nM; under `O=C1N[C@@]2(CCc3cc(OCC(F)(F)F)ccc32)Cc2nn(CCC3CC3)c(NC(=O)c3onc4ccccc34)c21` [Compound I-177], 610 nM.

Take `CS(=O)(=O)CC(=O)Nc1c2c(nn1CCC1CC1)C[C@]1(CCc3cc(F)cc(F)c31)NC2=O` [Compound I-178]: the IC50 came to 39 nM. With `Cc1cccc(-n2nc3c(c2NC(=O)CS(C)(=O)=O)C(=O)N[C@@]2(CCc4cc(OCCCC(F)(F)F)ccc42)C3)c1` [Compound I-179], the IC50 was determined as 6.1 nM.

Turning to `Cc1ccccc1-n1nc2c(c1NC(=O)CS(C)(=O)=O)C(=O)N[C@@]1(CCc3cc(OCCCC(F)(F)F)ccc31)C2` [Compound I-180], the IC50 came to 150 nM. The result for `O=C1N[C@@]2(CCc3cc(OCC(F)(F)F)ccc32)Cc2nn(CCC3CC3)c(C(=O)NS(=O)(=O)C3CC3)c21` [Compound I-181] reads 15 nM; that for `CS(=O)(=O)CC(=O)Nc1c2c(nn1-c1ccc(F)cc1)C[C@]1(CCOc3cc(OCC(F)(F)F)ccc31)NC2=O` [Compound I-182], 2.5 nM; that for `O=C1N[C@@]2(CCc3cc(OCC(F)(F)F)ccc32)Cc2nn(CCC3CC3)c(NC(=O)C3CS(=O)(=O)C3)c21` [Compound I-183], 18 nM. Under `O=C1N[C@@]2(CCc3cc(OCC(F)(F)F)ccc32)Cc2nn(CCC3CC3)c(NC(=O)C3CC(F)(F)C3)c21` [Compound I-184] stands 68 nM; under `CS(=O)(=O)CC(=O)Nc1c2c(nn1-c1ccccn1)C[C@]1(CCc3cc(OCC(F)(F)F)cc(F)c31)NC2=O` [Compound I-185], 6.3 nM.

Take `O=C1N[C@@]2(CCc3cc(OCC(F)(F)F)ccc32)Cc2nn(CCC3CC3)c(-c3noc(=O)[nH]3)c21` [Compound I-186]: the IC50 worked out at 7.6 nM. The result for `O=C1N[C@@]2(CCc3cc(OCC(F)(F)F)ccc32)Cc2nn(CCC3CC3)c(C(=O)O)c21` [Compound I-187] reads 190 nM. For `CS(=O)(=O)CC(=O)Nc1c2c(nn1-c1ccncn1)C[C@]1(CCc3cc(OCC(F)(F)F)ccc31)NC2=O` [Compound I-188], the IC50 worked out at 52 nM.

In the case of `CS(=O)(=O)CC(=O)Nc1c2c(nn1-c1ccc(C(F)(F)F)cn1)C[C@]1(CCc3cc(OCC(F)(F)F)ccc31)NC2=O` [Compound I-189], the IC50 was found to be 1.2 nM. For the compound `CS(=O)(=O)CC(=O)Nc1c2c(nn1CCc1ccccc1)C[C@]1(CCc3cc(OCC(F)(F)F)ccc31)NC2=O` [Compound I-191], the IC50 was determined as 28 nM. The result for `CS(=O)(=O)CC(=O)Nc1c2c(nn1Cc1nc(C(F)(F)F)cs1)C[C@]1(CCc3cc(OCC(F)(F)F)ccc31)NC2=O` [Compound I-192] reads 6.5 nM; that for `CS(=O)(=O)CC(=O)Nc1c2c(nn1CCCC(F)(F)F)C[C@]1(CCc3cc(OCC(F)(F)F)ccc31)NC2=O` [Compound I-193], 6.1 nM. Turning to `CCS(=O)(=O)NCc1c2c(nn1CCC1CC1)C[C@]1(CCc3cc(OCC(F)(F)F)ccc31)NC2=O` [Compound I-194], the IC50 is 460 nM. Under `O=C1N[C@@]2(CCc3cc(OCC(F)(F)F)ccc32)Cc2nn(CCC3CC3)c(CNS(=O)(=O)C3CC3)c21` [Compound I-195] stands 450 nM; under `O=C1N[C@@]2(CCc3cc(OCC(F)(F)F)ccc32)Cc2nn(CCC3CC3)c(C(=O)Nc3ccccc3)c21` [Compound I-196], 1000 nM. The result for `CC(C)(O)c1ccc(-n2nc3c(c2NC(=O)CS(C)(=O)=O)C(=O)N[C@@]2(CCc4cc(OCCCC(F)(F)F)ccc42)C3)cc1` [Compound I-197] reads 24 nM. Under `CS(=O)(=O)CC(=O)Nc1c2c(nn1CCC1CC1)C[C@]1(CCc3cc(NC(=O)CC(F)(F)F)ccc31)NC2=O` [Compound I-198] stands 67 nM. As for `O=C(Nc1c2c(nn1CCC1CC1)C[C@]1(CCc3cc(OCC(F)(F)F)ccc31)NC2=O)c1ccncn1` [Compound I-199], the IC50 stood at 400 nM. The result for `CS(=O)(=O)CC(=O)Nc1c2c(nn1CCC1CC1)C[C@]1(CCc3cc(N4CC(F)(F)C4)cc(F)c31)NC2=O` [Compound I-202] reads 6.2 nM; that for `CS(=O)(=O)CC(=O)Nc1c2c(nn1-c1ccc(F)cn1)C[C@]1(CCc3cc(OCC(F)(F)F)ccc31)NC2=O` [Compound I-203], 2.6 nM. Under `CS(=O)(=O)CC(=O)Nc1c2c(nn1CCC1CC1)C[C@]1(CCc3cc(N4CC(F)(F)C4)ccc31)NC2=O` [Compound I-204] stands 11.3 nM; under `CS(=O)(=O)CC(=O)Nc1c2c(nn1CC1CCOCC1)C[C@]1(CCc3cc(OCCCC(F)(F)F)ccc31)NC2=O` [Compound I-205], 270 nM; under `CS(=O)(=O)CC(=O)Nc1c2c(nn1CCCC(F)(F)F)C[C@]1(CCc3cc(OCCCC(F)(F)F)ccc31)NC2=O` [Compound I-206], 2.4 nM. The result for `CS(=O)(=O)CC(=O)Nc1c2c(nn1CCCC#N)C[C@]1(CCc3cc(OCCCC(F)(F)F)ccc31)NC2=O` [Compound I-207] reads 17.5 nM.

Turning to `CS(=O)(=O)CC(=O)Nc1nn(CCCC(F)(F)F)c2c1C(=O)N[C@@]1(CCc3cc(OCCCC(F)(F)F)ccc31)C2` [Compound I-208], the IC50 was determined as 250 nM.

As for `CS(=O)(=O)CC(=O)Nc1c2c(nn1Cc1nc(C(F)(F)F)cs1)C[C@]1(CCc3cc(OCCCC(F)(F)F)ccc31)NC2=O` [Compound I-209], the IC50 stood at 3.2 nM. The result for `CS(=O)(=O)CC(=O)Nc1nn(Cc2nc(C(F)(F)F)cs2)c2c1C(=O)N[C@@]1(CCc3cc(OCCCC(F)(F)F)ccc31)C2` [Compound I-210] reads 550 nM; that for `CS(=O)(=O)CC(=O)Nc1c2c(nn1-c1ccc(F)cn1)C[C@@]1(CCc3cc(OCC(F)(F)F)ccc31)NC2=O` [Compound I-211], 2.1 nM.

Turning to `CS(=O)(=O)CC(=O)NCc1c2c(nn1CCC1CC1)C[C@]1(CCc3cc(OCC(F)(F)F)ccc31)NC2=O` [Compound I-213], the IC50 was 43 nM. Under `CCCC(C)n1nc2c(c1NC(=O)CS(C)(=O)=O)C(=O)N[C@@]1(CCc3cc(OCC(F)(F)F)ccc31)C2` (stereo partly drawn) [Compound I-214] stands 460 nM. Under `O=C(Nc1c2c(nn1CCC1CC1)C[C@]1(CCc3cc(OCC(F)(F)F)ccc31)NC2=O)c1ncccn1` [Compound I-215] stands 420 nM.
